Laboratory results as given in PubChem BioAssay (NCI).
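Briefly, cells in 96-well plates were exposed to five compound concentrations for 48 h, and endpoints were estimated by linear interpolation. The concentration for full growth arrest is given as TGI.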

Columns and labels:
Test in all cases: inhibition of tumour cell growth, NCI panel, 48 h
786-0 renal = tested on: 786-0 renal
A498 renal = tested on: A498 renal
A549 NSCLC = tested on: A549 NSCLC
ACHN renal = tested on: ACHN renal
CAKI-1 renal = tested on: CAKI-1 renal
CCRF-CEM leukemia = tested on: CCRF-CEM leukemia
DLD-1 colon = tested on: DLD-1 colon
DMS 114 small cell lung = tested on: DMS 114 small cell lung
DMS 273 small cell lung = tested on: DMS 273 small cell lung
EKVX NSCLC = tested on: EKVX NSCLC
HCC-2998 colon = tested on: HCC-2998 colon
HCT-116 colon = tested on: HCT-116 colon
HCT-15 colon = tested on: HCT-15 colon
HL-60(TB) leukemia = tested on: HL-60(TB) leukemia
HOP-18 NSCLC = tested on: HOP-18 NSCLC
HOP-62 NSCLC = tested on: HOP-62 NSCLC
HOP-92 NSCLC = tested on: HOP-92 NSCLC
HT29 colon = tested on: HT29 colon
IGROV1 ovarian = tested on: IGROV1 ovarian
K-562 leukemia = tested on: K-562 leukemia
KM12 colon = tested on: KM12 colon
KM20L2 colon = tested on: KM20L2 colon
LOX IMVI melanoma = tested on: LOX IMVI melanoma
LXFL 529 NSCLC = tested on: LXFL 529 NSCLC
M14 melanoma = tested on: M14 melanoma
M19-MEL melanoma = tested on: M19-MEL melanoma
MALME-3M melanoma = tested on: MALME-3M melanoma
MOLT-4 leukemia = tested on: MOLT-4 leukemia
NCI-H226 lung = tested on: NCI-H226 lung
NCI-H23 lung = tested on: NCI-H23 lung
NCI-H460 lung = tested on: NCI-H460 lung
NCI-H522 lung = tested on: NCI-H522 lung
OVCAR-3 ovarian = tested on: OVCAR-3 ovarian
OVCAR-4 ovarian = tested on: OVCAR-4 ovarian
OVCAR-5 ovarian = tested on: OVCAR-5 ovarian
OVCAR-8 ovarian = tested on: OVCAR-8 ovarian
RPMI-8226 leukemia = tested on: RPMI-8226 leukemia
RXF 393 renal = tested on: RXF 393 renal
SF-268 CNS = tested on: SF-268 CNS
SF-295 CNS = tested on: SF-295 CNS
SF-539 CNS = tested on: SF-539 CNS
SK-MEL-2 melanoma = tested on: SK-MEL-2 melanoma
SK-MEL-28 melanoma = tested on: SK-MEL-28 melanoma
SK-MEL-5 melanoma = tested on: SK-MEL-5 melanoma
SK-OV-3 ovarian = tested on: SK-OV-3 ovarian
SN12C renal = tested on: SN12C renal
SNB-19 CNS = tested on: SNB-19 CNS
SNB-75 CNS = tested on: SNB-75 CNS
SR leukemia = tested on: SR leukemia
SW-620 colon = tested on: SW-620 colon
TK-10 renal = tested on: TK-10 renal
U251 CNS = tested on: U251 CNS
UACC-257 melanoma = tested on: UACC-257 melanoma
UACC-62 melanoma = tested on: UACC-62 melanoma
UO-31 renal = tested on: UO-31 renal
COLO 205 colon = tested on: COLO 205 colon
SNB-78 CNS = tested on: SNB-78 CNS

## Cc1ccc(-c2cc(=O)c3cc4c(cc3[nH]2)OCO4)cc1
786-0 renal
  TGI: 14.6 µM
A498 renal
  TGI: 10.5 µM
A549 NSCLC
  TGI: > 63.4 µM
ACHN renal
  TGI: > 100 µM
CAKI-1 renal
  TGI: > 100 µM
CCRF-CEM leukemia
  TGI: > 100 µM
DLD-1 colon
  TGI: > 100 µM
DMS 114 small cell lung
  TGI: > 100 µM
DMS 273 small cell lung
  TGI: > 25 µM
EKVX NSCLC
  TGI: > 100 µM
HCC-2998 colon
  TGI: 5.56 µM
HCT-116 colon
  TGI: > 100 µM
HCT-15 colon
  TGI: 6.64 µM
HL-60(TB) leukemia
  TGI: 2.77 µM
HOP-18 NSCLC
  TGI: 35.2 µM
HOP-62 NSCLC
  TGI: 20.5 µM
HOP-92 NSCLC
  TGI: 71.2 µM
HT29 colon
  TGI: > 100 µM
IGROV1 ovarian
  TGI: > 100 µM
K-562 leukemia
  TGI: > 100 µM
KM12 colon
  TGI: > 100 µM
KM20L2 colon
  TGI: 3.43 µM
LOX IMVI melanoma
  TGI: > 100 µM
LXFL 529 NSCLC
  TGI: 21.8 µM
M14 melanoma
  TGI: > 22 µM
M19-MEL melanoma
  TGI: > 100 µM
MALME-3M melanoma
  TGI: > 33.4 µM
MOLT-4 leukemia
  TGI: > 42.6 µM
NCI-H226 lung
  TGI: 8.66 µM
NCI-H23 lung
  TGI: 3.29 µM
NCI-H460 lung
  TGI: 3.82 µM
NCI-H522 lung
  TGI: 4.83 µM
OVCAR-3 ovarian
  TGI: > 100 µM
OVCAR-4 ovarian
  TGI: > 100 µM
OVCAR-5 ovarian
  TGI: > 82.3 µM
OVCAR-8 ovarian
  TGI: > 100 µM
RPMI-8226 leukemia
  TGI: > 100 µM
RXF 393 renal
  TGI: 9.94 µM
SF-268 CNS
  TGI: > 72.1 µM
SF-295 CNS
  TGI: 11.6 µM
SF-539 CNS
  TGI: 4.54 µM
SK-MEL-2 melanoma
  TGI: 14.2 µM
SK-MEL-28 melanoma
  TGI: > 100 µM
SK-MEL-5 melanoma
  TGI: 5.6 µM
SK-OV-3 ovarian
  TGI: 28.9 µM
SN12C renal
  TGI: > 100 µM
SNB-19 CNS
  TGI: > 100 µM
SNB-75 CNS
  TGI: 35 µM
SR leukemia
  TGI: > 40.4 µM
SW-620 colon
  TGI: > 100 µM
TK-10 renal
  TGI: > 60.6 µM
U251 CNS
  TGI: 10.5 µM
UACC-257 melanoma
  TGI: > 100 µM
UACC-62 melanoma
  TGI: > 39.1 µM
UO-31 renal
  TGI: > 100 µM

## CC(=O)O[C@]1(C)CCC2C(C)C(=O)OC2C2C(C)[C@@H](O)CC21 (stereo not given in full)
786-0 renal
  TGI: > 100 µM
A498 renal
  TGI: > 100 µM
A549 NSCLC
  TGI: > 100 µM
ACHN renal
  TGI: > 100 µM
CAKI-1 renal
  TGI: > 100 µM
CCRF-CEM leukemia
  TGI: > 100 µM
COLO 205 colon
  TGI: 36.2 µM
DLD-1 colon
  TGI: > 100 µM
DMS 273 small cell lung
  TGI: 54.5 µM
EKVX NSCLC
  TGI: > 100 µM
HCC-2998 colon
  TGI: 58 µM
HCT-116 colon
  TGI: 50.8 µM
HCT-15 colon
  TGI: 32.5 µM
HL-60(TB) leukemia
  TGI: 34.2 µM
HOP-18 NSCLC
  TGI: > 100 µM
HOP-62 NSCLC
  TGI: 45.2 µM
HOP-92 NSCLC
  TGI: 91.3 µM
HT29 colon
  TGI: > 100 µM
IGROV1 ovarian
  TGI: > 100 µM
K-562 leukemia
  TGI: 54.9 µM
KM12 colon
  TGI: > 100 µM
KM20L2 colon
  TGI: 71.2 µM
LOX IMVI melanoma
  TGI: 34.2 µM
LXFL 529 NSCLC
  TGI: 59 µM
M14 melanoma
  TGI: 47.9 µM
M19-MEL melanoma
  TGI: 57.4 µM
MALME-3M melanoma
  TGI: > 100 µM
NCI-H226 lung
  TGI: > 100 µM
NCI-H23 lung
  TGI: > 100 µM
NCI-H460 lung
  TGI: > 100 µM
NCI-H522 lung
  TGI: 34.4 µM
OVCAR-3 ovarian
  TGI: 47.3 µM
OVCAR-4 ovarian
  TGI: > 100 µM
OVCAR-5 ovarian
  TGI: > 100 µM
OVCAR-8 ovarian
  TGI: > 100 µM
RPMI-8226 leukemia
  TGI: 60.1 µM
RXF 393 renal
  TGI: 82.5 µM
SF-268 CNS
  TGI: > 100 µM
SF-295 CNS
  TGI: > 100 µM
SF-539 CNS
  TGI: > 100 µM
SK-MEL-2 melanoma
  TGI: 58.3 µM
SK-MEL-28 melanoma
  TGI: > 100 µM
SK-MEL-5 melanoma
  TGI: 89.7 µM
SK-OV-3 ovarian
  TGI: > 100 µM
SN12C renal
  TGI: > 100 µM
SNB-19 CNS
  TGI: > 100 µM
SNB-75 CNS
  TGI: > 100 µM
SNB-78 CNS
  TGI: > 100 µM
SR leukemia
  TGI: > 100 µM
SW-620 colon
  TGI: 31.2 µM
TK-10 renal
  TGI: > 100 µM
U251 CNS
  TGI: > 100 µM
UACC-257 melanoma
  TGI: > 100 µM
UACC-62 melanoma
  TGI: 89.5 µM
UO-31 renal
  TGI: > 100 µM
